Experiments:
Type in all cases: in vivo, human
[1] = system: obese or overweight adults; assay: Exposure–body weight loss analysis, clinical Trials 1–3; conditions: Trial 1, liraglutide 3.0 mg, overall female population
[2] = system: obese or overweight adults with type 2 diabetes; assay: Exposure–HbA1c analysis, Trial 2; conditions: Trial 2, type 2 diabetes, corresponds to ∼500 nM × h
[3] = system: obese or overweight adults; assay: Exposure–safety outcome analyses

Compound: CCCCCCCCCCCCCCCC(=O)N[C@@H](CCC(=O)NCCCC[C@H](NC(=O)[C@H](C)NC(=O)[C@H](C)NC(=O)[C@H](CCC(N)=O)NC(=O)CNC(=O)[C@H](CCC(=O)O)NC(=O)[C@H](CC(C)C)NC(=O)[C@H](Cc1ccc(O)cc1)NC(=O)[C@H](CO)NC(=O)[C@H](CO)NC(=O)[C@@H](NC(=O)[C@H](CC(=O)O)NC(=O)[C@H](CO)NC(=O)[C@@H](NC(=O)[C@H](Cc1ccccc1)NC(=O)[C@@H](NC(=O)CNC(=O)[C@H](CCC(=O)O)NC(=O)[C@H](C)NC(=O)[C@@H](N)Cc1cnc[nH]1)[C@@H](C)O)[C@@H](C)O)C(C)C)C(=O)N[C@@H](CCC(=O)O)C(=O)N[C@@H](Cc1ccccc1)C(=O)N[C@H](C(=O)N[C@@H](C)C(=O)N[C@@H](Cc1c[nH]c2ccccc12)C(=O)N[C@@H](CC(C)C)C(=O)N[C@H](C(=O)N[C@@H](CCCNC(=N)N)C(=O)NCC(=O)N[C@@H](CCCNC(=N)N)C(=O)NCC(=O)O)C(C)C)[C@@H](C)CC)C(=O)O [liraglutide, Liraglutide]
- weight loss [1]: 9.3 kg
- weight loss from baseline [1]: 9.2%
- liraglutide plasma concentration at which HbA1c reduction plateaued [2]: ~21 nM
- effect on serum calcitonin levels ([3]; all three trials, change from baseline over all exposure quantiles): did not result in elevated serum calcitonin levels
- increase in mean resting pulse versus placebo ([3]; liraglutide-treated individuals, doses 1.2–3.0 mg, Trials 1–3): 2–3 beats per min
